# Laboratory results published in ChEMBL document CHEMBL5096189, “The Mur Enzymes Chink in the Armour of Mycobacterium tuberculosis cell wall” (Eur J Med Chem, 2021).
# pIC50: −log10 of the molar value. Where “and” joins values, the source holds several entries; their conditions need not be identical. Identical values can stand only once.
# Tests used:
# RAW264.7 [1] = experiment: Cytotoxicity against mouse RAW264.7 cells assessed as cell growth inhibition incubated for 48 hrs by resazurin staining based fluorometric analysis; format: functional; conditions: RAW264.7, 48 h
# [2] = Selectivity index, ratio of IC50 for cytotoxicity against mouse RAW264.7 cells to MIC for antitubercular activity against Mycobacterium tuberculosis H37Rv ATCC 27294; format: toxicity, cell-based; conditions: for selectivity ratio: RAW264.7 cells, read-out: Selectivity Index
# [3] = Inhibition of recombinant Mycobacterium tuberculosis MurE expressed in Escherichia coli BL21(DE3) cells using UDP-MurNAc-dipeptide as substrate incubated for 30 mins by phosphate release based colorimetric assay; format: cell-based
# [4] = Inhibition of Mycobacterium tuberculosis MurE expressed in Escherichia coli BL21(DE3) cells using UDP-MurNAc-dipeptide as substrate incubated for 30 mins by HPLC analysis
# [5] = tested on: Mycobacterium tuberculosis; experiment: (§1) Inhibition of N-terminal His-tagged Mycobacterium tuberculosis MurB expressed in Escherichia coli BL21 (DE3) cells using UDP-GlcNAc as initial substrate pretreated with compound for 15 mins followed by substrate addition measured after 30 mins in presence of ATP by phosphate release based assay relative to control; conditions: time 45.0 min
# [6] = tested on: Mycobacterium tuberculosis; experiment: as §1, with “MurA” for “MurB”; conditions: time 45.0 min
# [7] = tested on: Mycobacterium tuberculosis; experiment: as §1, with “MurC” for “MurB”; conditions: time 45.0 min
# [8] = tested on: Mycobacterium tuberculosis; experiment: as §1, with “of” for “of N-terminal His-tagged”, “MBP tagged MurD” for “MurB”, “Rosetta-gami” for “BL21”; conditions: time 45.0 min
# [9] = as §1, with “MurE” for “MurB”
# [10] = as §1, with “of” for “of N-terminal His-tagged”, “MBP tagged MurF” for “MurB”, “Rosetta-gami” for “BL21”
# [11] = tested on: Mycobacterium tuberculosis; experiment: Antitubercular activity against Mycobacterium tuberculosis H37Rv ATCC 27294 assessed as bacterial growth inhibition; format: functional
# [12] = tested on: Mycobacterium tuberculosis; experiment: Antitubercular activity against Mycobacterium tuberculosis H37Rv ATCC 27294 assessed as bacterial growth inhibition incubated for 6 days by MTT assay; format: functional; conditions: H37Rv ATCC 27294, 144 h, time 6 day
# [13] = Inhibition of Mycobacterium tuberculosis MurE expressed in Escherichia coli BL21(DE3) cells by phosphate release based colorimetric assay
# [14] = tested on: Mycobacterium tuberculosis; experiment: Inhibition of Mycobacterium tuberculosis MurD at 100 uM relative to control
# [15] = tested on: Mycobacterium tuberculosis; experiment: Inhibition of Mycobacterium tuberculosis MurE at 100 uM relative to control
# [16] = tested on: Mycobacterium tuberculosis; experiment: Inhibition of Mycobacterium tuberculosis MurF at 100 uM relative to control
# [17] = tested on: Mycobacterium tuberculosis; experiment: Inhibition of Mycobacterium tuberculosis MurC at 100 uM relative to control
# [18] = Inhibition of recombinant Mycobacterium tuberculosis MurE expressed in Pseudomonas putida KT2442 using UDPMurNAc-L-Ala-D-Glu as substrate incubated for 30 mins by HPLC analysis
# [19] = tested on: Mycobacterium tuberculosis; experiment: Antimycobacterial activity against Mycobacterium tuberculosis H37Rv ATCC 27294 assessed as inhibition of bacterial growth incubated for 2 weeks by spot culture growth inhibition assay; format: functional; conditions: H37Rv ATCC 27294, 336 h
# RAW264.7 [20] = experiment: Cytotoxicity against mouse RAW264.7 cells assessed as cell growth inhibition; format: functional, cell-based
# [21] = tested on: Mycobacterium tuberculosis; experiment: Antitubercular activity against Mycobacterium tuberculosis H37Rv ATCC 9360 assessed as bacterial growth inhibition incubated for 2 weeks by spot culture growth inhibition assay; format: functional; conditions: H37Rv ATCC 9360, 336 h
# [22] = Inhibition of Mycobacterium tuberculosis MurE using UDPMurNAc-L-Ala-D-Glu as substrate incubated for 30 mins by phosphate release based colorimetric assay
smiles,measurement,setting,value
CCCCCCCCC/C=C\CCCC1CC(=O)c2ccccc2N1C (configuration not stated),IC50,RAW264.7 [1],24 mg/L
same,selectivity ratio,[2],1
same,pIC50,[3],4.28
same,pIC50,[4],3.80
same,inhibition,[5],> 100%
same,inhibition,[6],> 100%
same,inhibition,[7],73%
same,inhibition,[8],85%
same,pIC50,[9],4.77
same,pIC50,[10],4.59
same,MIC,[11],70.7 µM
COC(=O)N1CCc2c(OC)c(OC)c(O)c3c2[C@@H]1Cc1cc2c(cc1-3)OCO2,MIC,[12],128 mg/L
same,IC50,RAW264.7 [1],67 mg/L
same,selectivity ratio,[2],0.52
same,pIC50,[3],4.12 and > 4.00
CCCCCCCCCCCC#CCC1CC(=O)c2ccccc2N1CCCC (configuration not stated),pIC50,[13],3.70
CCCCCCCCCC/C=C/C1CC(=O)c2ccccc2N1C (configuration not stated),IC50,RAW264.7 [1],24 mg/L
same,selectivity ratio,[2],1
same,pIC50,[3],4.14
same,pIC50,[4],3.73
same,MIC,[11],30.7 µM
CC(=O)N[C@H]1[C@H](OCc2cnnn2C[C@H]2O[C@@H](n3ccc(=O)[nH]c3=O)[C@H](O)[C@@H]2O)O[C@H](Cn2cc(C(N)=O)nn2)[C@@H](O)[C@@H]1O,inhibition,[14],23%
same,inhibition,[15],6.1%
same,inhibition,[16],41.8%
same,inhibition,[17],12.1%
COc1c(O)c2c3c(c1OC)CCN[C@H]3Cc1cc3c(cc1-2)OCO3 [listing 1 of 2 here],inhibition,[5],> 100%
same,inhibition,[6],75%
same,inhibition,[7],66%
same,inhibition,[8],88%
COc1c(O)c2c3c(c1OC)CCNC3Cc1cc3c(cc1-2)OCO3 (configuration not stated),pIC50,[18],3.09
same,MIC,[19],84 µM
same,pIC50,RAW264.7 [20],3.45
CCCCCCCC/C=C\CCCCC1CC(=O)c2ccccc2N1C (configuration not stated),IC50,RAW264.7 [1],24 mg/L
same,selectivity ratio,[2],1
same,pIC50,[3],4.44
same,pIC50,[4],4.02
same,MIC,[11],28.3 µM
COc1c(O)c2c3c(c1OC)CCN[C@H]3Cc1cc3c(cc1-2)OCO3 [listing 2 of 2 here],MIC,[12],64 mg/L
same,IC50,RAW264.7 [1],62 mg/L
same,Selectivity Index,[2],0.97
same,pIC50,[3],4.17 and > 4.00
CCCCCCCCCC#CCC1CC(=O)c2ccccc2N1CCCC (configuration not stated),pIC50,[13],3.63
NNC(=O)c1ccncc1 [ISONIAZID],pIC50,[3],< 3.00
same,pIC50,[18],< 3.00
Oc1ccc(I)c2c1C(Cc1cccc3c1OCO3)NCC2 (configuration not stated),pIC50,[18],> 3.95
same,MIC,[19],71 µM
Oc1ccc(Br)c2c1C(c1cccc3c1OCO3)NCC2 (configuration not stated),pIC50,[18],> 3.95
CCCCCCCC/C=C/C1CC(=O)c2ccccc2N1C (configuration not stated),IC50,RAW264.7 [1],24 mg/L
same,selectivity ratio,[2],1
same,pIC50,[3],4.15
same,pIC50,[4],3.68
same,MIC,[11],84 µM
CC(=O)N[C@H]1[C@H](OCc2cn(C[C@@H]3O[C@H](n4ccc(=O)[nH]c4=O)[C@@H](O)[C@H]3O)nn2)O[C@H](Cn2cc(CO[C@@H]3O[C@H](CO)[C@@H](O)[C@H](O)[C@H]3NC(C)=O)nn2)[C@@H](O)[C@@H]1O,inhibition,[14],5.2%
same,inhibition,[15],12.5%
same,inhibition,[16],48.9%
same,inhibition,[17],1%
Oc1ccc(Br)c2c1C(Cc1cccc3c1OCO3)NCC2 (configuration not stated),pIC50,[18],> 3.95
COc1c(O)c2c3c(c1OC)CCN[C@H]3Cc1cc3c(cc1-2)OCO3.Cl,MIC,[12],4 mg/L
same,IC50,RAW264.7 [1],47 mg/L
same,Selectivity Index,[2],12
same,pIC50,[3],4.24
same,pIC50,[9],4.21
same,pIC50,[10],4.34
CCCCCCCCCCC/C=C/C1CC(=O)c2ccccc2N1C (configuration not stated),IC50,RAW264.7 [1],24 mg/L
same,selectivity ratio,[2],1
same,pIC50,[3],4.28
same,pIC50,[4],3.85
same,MIC,[11],58.9 µM
C=CC(C)(C)C1C(=O)CC(c2ccccc2)OC1OC (configuration not stated),MIC,[21],75 mg/L
same,pIC50,[22],3.49
COc1ccc(Br)c2c1C(c1cccc3c1OCO3)NCC2 (configuration not stated),pIC50,[18],3.78
same,MIC,[19],106 µM
